Experimental data published in PubChem BioAssay AID1259407 (Chemical Carcinogenesis Research Information System (CCRIS), 2018).
Calls of active or inactive are those of the source. No rule for the calls is given here.

Tested on: CCRIS mutagenicity, Ames/micronucleus/aberration tests
Test: CCRIS mutagenicity studies
Conditions: Test System: AMES SALMONELLA TYPHIMURIUM

Question: How did the mutagenic call (Strain/Indicator: TA97A, Metabolic Activation: NONE, Method: STANDARD PLATE) turn out when `Nc1c2ccccc2nc2ccccc12` was run?
Answer: Its mutagenic call is “active; positive”.

Question: And the mutagenic call (Strain/Indicator: TA98, Metabolic Activation: HAMSTER, LIVER, S-9, AROCLOR 1254 (10%), Method: PREINCUBATION)?
Answer: Its mutagenic call is “inactive; negative”.

Question: What about the mutagenic call (Strain/Indicator: TA98, Metabolic Activation: NONE, Method: FLUCTUATION (MICROTITER)) of the same molecule?
Answer: Its mutagenic call is “inactive; negative”.

Question: What about the mutagenic call (Strain/Indicator: TA98, Metabolic Activation: NONE, Method: PREINCUBATION) of the same molecule?
Answer: Its mutagenic call is “inactive; negative”.

Question: And the mutagenic call (Strain/Indicator: TA98, Metabolic Activation: NONE, Method: SPIRAL ASSAY)?
Answer: The mutagenic call was “inactive; negative”.

Question: And the mutagenic call (Strain/Indicator: TA98, Metabolic Activation: NONE, Method: STANDARD PLATE)?
Answer: Its mutagenic call is “inactive; negative”.

Question: What about the mutagenic call (Strain/Indicator: TA98, Metabolic Activation: RAT, LIVER, S-9, AROCLOR 1254 (10%), Method: PREINCUBATION) of the same molecule?
Answer: Its mutagenic call is “inactive; negative”.

Question: And the mutagenic call (Strain/Indicator: TA98, Metabolic Activation: RAT, LIVER, S-9, AROCLOR 1254, Method: SPIRAL ASSAY)?
Answer: The mutagenic call was “inactive; negative”.

Question: And the mutagenic call (Strain/Indicator: TA98, Metabolic Activation: RAT, LIVER, S-9, AROCLOR 1254, Method: STANDARD PLATE)?
Answer: The mutagenic call was “inactive; negative”.

Question: And the mutagenic call (Strain/Indicator: TA100, Metabolic Activation: HAMSTER, LIVER, S-9, AROCLOR 1254 (10%), Method: PREINCUBATION)?
Answer: The mutagenic call was “inactive; negative”.

Question: What about the mutagenic call (Strain/Indicator: TA100, Metabolic Activation: NONE, Method: PREINCUBATION) of the same molecule?
Answer: The mutagenic call was “inactive; negative”.

Question: What about the mutagenic call (Strain/Indicator: TA100, Metabolic Activation: NONE, Method: SPIRAL ASSAY) of the same molecule?
Answer: The mutagenic call was “inactive; negative”.

Question: And the mutagenic call (Strain/Indicator: TA100, Metabolic Activation: NONE, Method: STANDARD PLATE)?
Answer: The mutagenic call was “inactive; negative”.

Question: And the mutagenic call (Strain/Indicator: TA100, Metabolic Activation: RAT, LIVER, S-9, AROCLOR 1254 (10%), Method: PREINCUBATION)?
Answer: Its mutagenic call is “inactive; negative”.

Question: What about the mutagenic call (Strain/Indicator: TA100, Metabolic Activation: RAT, LIVER, S-9, AROCLOR 1254, Method: SPIRAL ASSAY) of the same molecule?
Answer: The mutagenic call was “inactive; negative”.

Question: And the mutagenic call (Strain/Indicator: TA100, Metabolic Activation: RAT, LIVER, S-9, AROCLOR 1254, Method: STANDARD PLATE)?
Answer: The mutagenic call was “inactive; negative”.

Question: What about the mutagenic call (Strain/Indicator: TA1535, Metabolic Activation: HAMSTER, LIVER, S-9, AROCLOR 1254 (10%), Method: PREINCUBATION) of the same molecule?
Answer: Its mutagenic call is “inactive; negative”.

Question: What about the mutagenic call (Strain/Indicator: TA1535, Metabolic Activation: NONE, Method: PREINCUBATION) of the same molecule?
Answer: Its mutagenic call is “inactive; negative”.

Question: What about the mutagenic call (Strain/Indicator: TA1535, Metabolic Activation: NONE, Method: SPIRAL ASSAY) of the same molecule?
Answer: The mutagenic call was “inactive; negative”.

Question: What about the mutagenic call (Strain/Indicator: TA1535, Metabolic Activation: NONE, Method: STANDARD PLATE) of the same molecule?
Answer: The mutagenic call was “inactive; negative”.

Question: What about the mutagenic call (Strain/Indicator: TA1535, Metabolic Activation: RAT, LIVER, S-9, AROCLOR 1254 (10%), Method: PREINCUBATION) of the same molecule?
Answer: Its mutagenic call is “inactive; negative”.

Question: What about the mutagenic call (Strain/Indicator: TA1535, Metabolic Activation: RAT, LIVER, S-9, AROCLOR 1254, Method: SPIRAL ASSAY) of the same molecule?
Answer: Its mutagenic call is “inactive; negative”.

Question: And the mutagenic call (Strain/Indicator: TA1535, Metabolic Activation: RAT, LIVER, S-9, AROCLOR 1254, Method: STANDARD PLATE)?
Answer: Its mutagenic call is “inactive; negative”.

Question: And the mutagenic call (Strain/Indicator: TA1535, Metabolic Activation: RAT, LIVER, S-9, TETRACHLOROBIPHENYL, Method: PREINCUBATION)?
Answer: Its mutagenic call is “inactive; negative”.

Question: And the mutagenic call (Strain/Indicator: TA1537, Metabolic Activation: HAMSTER, LIVER, S-9, AROCLOR 1254 (10%), Method: PREINCUBATION)?
Answer: Its mutagenic call is “active; positive”.

Question: What about the mutagenic call (Strain/Indicator: TA1537, Metabolic Activation: NONE) of the same molecule?
Answer: The mutagenic call was “active; positive”.

Question: And the mutagenic call (Strain/Indicator: TA1537, Metabolic Activation: NONE, Method: PREINCUBATION)?
Answer: The mutagenic call was “active; positive”.

Question: And the mutagenic call (Strain/Indicator: TA1537, Metabolic Activation: NONE, Method: SPIRAL ASSAY)?
Answer: Its mutagenic call is “active; positive”.
